PubChem BioAssay (NCI)
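Compound exposure: 48 hours, 5 concentrations, 96-well plates. GI50 = concentration required for 50% inhibition of growth. TGI is the concentration that stops growth completely.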

Tests used:
Assay in all cases: NCI-60 cell line screen, 48 h
DU-145 prostate = test system: DU-145 prostate
OVCAR-4 ovarian = test system: OVCAR-4 ovarian
RPMI-8226 leukemia = test system: RPMI-8226 leukemia
ACHN renal = test system: ACHN renal
SK-MEL-5 melanoma = test system: SK-MEL-5 melanoma
SW-620 colon = test system: SW-620 colon
U251 CNS = test system: U251 CNS
SNB-75 CNS = test system: SNB-75 CNS
OVCAR-5 ovarian = test system: OVCAR-5 ovarian
SN12C renal = test system: SN12C renal
NCI-H460 lung = test system: NCI-H460 lung
HOP-92 NSCLC = test system: HOP-92 NSCLC
A498 renal = test system: A498 renal
SK-MEL-2 melanoma = test system: SK-MEL-2 melanoma
BT-549 breast = test system: BT-549 breast
SNB-19 CNS = test system: SNB-19 CNS
RXF 393 renal = test system: RXF 393 renal
HS 578T breast = test system: HS 578T breast
SF-295 CNS = test system: SF-295 CNS
KM12 colon = test system: KM12 colon
HCC-2998 colon = test system: HCC-2998 colon
SK-MEL-28 melanoma = test system: SK-MEL-28 melanoma
MALME-3M melanoma = test system: MALME-3M melanoma
MDA-MB-468 breast = test system: MDA-MB-468 breast
786-0 renal = test system: 786-0 renal
NCI-H23 lung = test system: NCI-H23 lung
EKVX NSCLC = test system: EKVX NSCLC
HCT-15 colon = test system: HCT-15 colon
UACC-257 melanoma = test system: UACC-257 melanoma
PC-3 prostate = test system: PC-3 prostate
K-562 leukemia = test system: K-562 leukemia
CAKI-1 renal = test system: CAKI-1 renal
LOX IMVI melanoma = test system: LOX IMVI melanoma
COLO 205 colon = test system: COLO 205 colon
CCRF-CEM leukemia = test system: CCRF-CEM leukemia
A549 NSCLC = test system: A549 NSCLC
T-47D breast = test system: T-47D breast
M14 melanoma = test system: M14 melanoma
SF-268 CNS = test system: SF-268 CNS
IGROV1 ovarian = test system: IGROV1 ovarian
MDA-MB-435 = test system: MDA-MB-435
HT29 colon = test system: HT29 colon
UACC-62 melanoma = test system: UACC-62 melanoma
MOLT-4 leukemia = test system: MOLT-4 leukemia
NCI/ADR-RES ovarian = test system: NCI/ADR-RES ovarian
SF-539 CNS = test system: SF-539 CNS
HCT-116 colon = test system: HCT-116 colon
SK-OV-3 ovarian = test system: SK-OV-3 ovarian
NCI-H522 lung = test system: NCI-H522 lung
NCI-H226 lung = test system: NCI-H226 lung
TK-10 renal = test system: TK-10 renal
OVCAR-3 ovarian = test system: OVCAR-3 ovarian
HOP-62 NSCLC = test system: HOP-62 NSCLC
HL-60(TB) leukemia = test system: HL-60(TB) leukemia
OVCAR-8 ovarian = test system: OVCAR-8 ovarian
MCF7 breast = test system: MCF7 breast

In the case of `CO[C@@H]1CSSC1Cn1nc(-c2ccc(Oc3ccccc3)cc2)c2c(N)ncnc21` (some centres not stated), the GI50 (DU-145 prostate) was > 100 µM, the TGI (DU-145 prostate) was > 100 µM and the GI50 (OVCAR-4 ovarian) was > 100 µM. For the same molecule, the TGI (OVCAR-4 ovarian) was > 100 µM, the GI50 (RPMI-8226 leukemia) was 43.3 µM and the TGI (RPMI-8226 leukemia) was > 100 µM. For the same molecule, the GI50 (ACHN renal) was 12.3 µM, the TGI (ACHN renal) was > 100 µM and the GI50 (SK-MEL-5 melanoma) was 14.8 µM. For the same molecule, the TGI (SK-MEL-5 melanoma) was > 100 µM, the GI50 (SW-620 colon) was 57.9 µM and the TGI (SW-620 colon) was > 100 µM. The GI50 (U251 CNS) was > 100 µM, the TGI (U251 CNS) was > 100 µM and the GI50 (SNB-75 CNS) was > 100 µM. The TGI (SNB-75 CNS) was > 100 µM, the GI50 (OVCAR-5 ovarian) was 51.5 µM and the TGI (OVCAR-5 ovarian) was > 100 µM. The GI50 (SN12C renal) was > 100 µM, the TGI (SN12C renal) was > 100 µM and the GI50 (NCI-H460 lung) was 3.43 µM. For the same molecule, the TGI (NCI-H460 lung) was 76.5 µM, the GI50 (HOP-92 NSCLC) was > 100 µM and the TGI (HOP-92 NSCLC) was > 100 µM. The GI50 (A498 renal) was 99 µM, the TGI (A498 renal) was > 100 µM and the GI50 (SK-MEL-2 melanoma) was 22.8 µM. The TGI (SK-MEL-2 melanoma) was > 100 µM, the GI50 (BT-549 breast) was > 100 µM and the TGI (BT-549 breast) was > 100 µM. The GI50 (SNB-19 CNS) was > 100 µM, the TGI (SNB-19 CNS) was > 100 µM and the GI50 (RXF 393 renal) was 50.3 µM. For the same molecule, the TGI (RXF 393 renal) was > 100 µM, the GI50 (HS 578T breast) was > 100 µM and the TGI (HS 578T breast) was > 100 µM. The GI50 (SF-295 CNS) was 62 µM, the TGI (SF-295 CNS) was > 100 µM and the GI50 (KM12 colon) was 8.73 µM. The TGI (KM12 colon) was > 100 µM, the GI50 (HCC-2998 colon) was 21 µM and the TGI (HCC-2998 colon) was > 100 µM. For the same molecule, the GI50 (SK-MEL-28 melanoma) was 2870 nM, the TGI (SK-MEL-28 melanoma) was 21 µM and the GI50 (MALME-3M melanoma) was 62.7 µM. For the same molecule, the TGI (MALME-3M melanoma) was > 100 µM, the GI50 (MDA-MB-468 breast) was 5.18 µM and the TGI (MDA-MB-468 breast) was 86.5 µM. The GI50 (786-0 renal) was > 100 µM, the TGI (786-0 renal) was > 100 µM and the GI50 (NCI-H23 lung) was > 100 µM. For the same molecule, the TGI (NCI-H23 lung) was > 100 µM, the GI50 (EKVX NSCLC) was 7.29 µM and the TGI (EKVX NSCLC) was > 100 µM. For the same molecule, the GI50 (HCT-15 colon) was 33.3 µM, the TGI (HCT-15 colon) was > 100 µM and the GI50 (UACC-257 melanoma) was 16.2 µM. For the same molecule, the TGI (UACC-257 melanoma) was > 100 µM, the GI50 (PC-3 prostate) was 58.7 µM and the TGI (PC-3 prostate) was > 100 µM. For the same molecule, the GI50 (K-562 leukemia) was 3.6 µM, the TGI (K-562 leukemia) was > 100 µM and the GI50 (CAKI-1 renal) was > 100 µM. For the same molecule, the TGI (CAKI-1 renal) was > 100 µM, the GI50 (LOX IMVI melanoma) was 43.9 µM and the TGI (LOX IMVI melanoma) was > 100 µM. For the same molecule, the GI50 (COLO 205 colon) was 53.2 µM, the TGI (COLO 205 colon) was > 100 µM and the GI50 (CCRF-CEM leukemia) was 4.29 µM. The TGI (CCRF-CEM leukemia) was > 100 µM, the GI50 (A549 NSCLC) was 13.9 µM and the TGI (A549 NSCLC) was > 100 µM. For the same molecule, the GI50 (T-47D breast) was 6.14 µM, the TGI (T-47D breast) was > 100 µM and the GI50 (M14 melanoma) was 1990 nM. The TGI (M14 melanoma) was 4.35 µM, the GI50 (SF-268 CNS) was 8.22 µM and the TGI (SF-268 CNS) was > 100 µM. For the same molecule, the GI50 (IGROV1 ovarian) was > 100 µM, the TGI (IGROV1 ovarian) was > 100 µM and the GI50 (MDA-MB-435) was 3.19 µM. The TGI (MDA-MB-435) was 10.2 µM, the GI50 (HT29 colon) was 6.82 µM and the TGI (HT29 colon) was > 100 µM. The GI50 (UACC-62 melanoma) was 14.5 µM, the TGI (UACC-62 melanoma) was > 100 µM and the GI50 (MOLT-4 leukemia) was 2240 nM. For the same molecule, the TGI (MOLT-4 leukemia) was 6.52 µM, the GI50 (NCI/ADR-RES ovarian) was > 100 µM and the TGI (NCI/ADR-RES ovarian) was > 100 µM. For the same molecule, the GI50 (SF-539 CNS) was > 100 µM, the TGI (SF-539 CNS) was > 100 µM and the GI50 (HCT-116 colon) was 5.36 µM. The TGI (HCT-116 colon) was > 100 µM, the GI50 (SK-OV-3 ovarian) was 3.25 µM and the TGI (SK-OV-3 ovarian) was 24.6 µM. The GI50 (NCI-H522 lung) was 41.8 µM, the TGI (NCI-H522 lung) was > 100 µM and the GI50 (NCI-H226 lung) was 39.7 µM. For the same molecule, the TGI (NCI-H226 lung) was > 100 µM, the GI50 (TK-10 renal) was 37.9 µM and the TGI (TK-10 renal) was > 100 µM. The GI50 (OVCAR-3 ovarian) was 63.5 µM, the TGI (OVCAR-3 ovarian) was > 100 µM and the GI50 (HOP-62 NSCLC) was 16.4 µM. For the same molecule, the TGI (HOP-62 NSCLC) was > 100 µM, the GI50 (HL-60(TB) leukemia) was 6.13 µM and the TGI (HL-60(TB) leukemia) was > 100 µM. For the same molecule, the GI50 (OVCAR-8 ovarian) was > 100 µM, the TGI (OVCAR-8 ovarian) was > 100 µM and the GI50 (MCF7 breast) was 6.87 µM. For the same molecule, the TGI (MCF7 breast) was > 100 µM.
